Measured values as given in patent publication US10208064B2, “Inhibitors of the renal outer medullary potassium channel” (MERCK SHARP & DOHME CORP., priority 2014, dated 2019).

target: ROMK (Kir1.1) channel (Homo sapiens (Human), UniProt P48048); assay: Thallium Flux Assay; assay type: cell-based
Method: The following Thallium Flux Assay was performed on each of the final product compounds in the Examples.
A Thallium Flux Assay was performed on the compounds of the Examples. This assay has been described previously; see, e.g., PCT Published Application WO 2013/062900.

Sequence of ROMK (Kir1.1) channel (P48048 whole entry): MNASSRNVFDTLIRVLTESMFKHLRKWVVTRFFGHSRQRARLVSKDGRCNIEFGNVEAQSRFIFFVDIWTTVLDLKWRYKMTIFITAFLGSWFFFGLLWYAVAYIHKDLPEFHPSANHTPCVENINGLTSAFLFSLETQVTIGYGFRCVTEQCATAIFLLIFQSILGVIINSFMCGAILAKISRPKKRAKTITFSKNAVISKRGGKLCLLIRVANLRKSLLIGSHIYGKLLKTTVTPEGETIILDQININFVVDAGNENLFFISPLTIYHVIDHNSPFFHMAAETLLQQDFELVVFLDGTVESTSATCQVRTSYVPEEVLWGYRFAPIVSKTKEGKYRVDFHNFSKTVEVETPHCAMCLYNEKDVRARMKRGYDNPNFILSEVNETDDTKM

IC50 [µM]	Structure (SMILES)
0.014	C[C@H]1CC2(CCN(C[C@@H](O)c3ccc4c(c3)CCc3nnnn3-4)CC2)C(=O)N1C1=CC(=O)OC1 [Example 15, (S)-8-((S)-2-(4,5-dihydrotetrazolo[1,5-a]quinolin-7-yl)-2-hydroxyethyl)-3-methyl-2-(5-oxo-2,5-dihydrofuran-3-yl)-2,8-diazaspiro[4.5]decan-1-one]
0.035	CC1=C(N2CC[C@@]3(CCN(C[C@H](O)c4ccc5c(c4)Cn4nnnc4-5)C[C@@H]3F)C2=O)COC1=O [Example 3, (5S,6R)-6-fluoro-8-((R)-2-hydroxy-2-(5H-tetrazolo[5,1-a]isoindol-7-yl)ethyl)-2-(4-methyl-5-oxo-2,5-dihydrofuran-3-yl)-2,8-diazaspiro[4.5]decan-1-one]
0.421	CC1=C(N2CCC3(CCN(C(CO)c4ccc5c(c4)CCc4nnnn4-5)CC3)C2=O)COC1=O (centres unmarked) [Example 29, 8-(1-(4,5-dihydrotetrazolo[1,5-a]quinolin-7-yl)-2-hydroxyethyl)-2-(4-methyl-5-oxo-2,5-dihydrofuran-3-yl)-2,8-diazaspiro[4.5]decan-1-one]
0.082	CC1=C(N2CCC3(CCN(C[C@@H](O)c4cc5c(cc4C4CC4)-c4nnnn4C5)CC3)C2=O)COC1=O [Example 26, (S)-8-(2-(8-cyclopropyl-5H-tetrazolo[5,1-a]isoindol-7-yl)-2-hydroxyethyl)-2-(4-methyl-5-oxo-2,5-dihydrofuran-3-yl)-2,8-diazaspiro[4.5]decan-1-one]
0.006	CC1=C(N2CCC3(CCN(CCc4ccc5c(c4)Cn4nnnc4-5)CC3)C2=O)COC1=O [Example 30, 8-(2-(5H-tetrazolo[5,1-a]isoindol-7-yl)ethyl)-2-(4-methyl-5-oxo-2,5-dihydrofuran-3-yl)-2,8-diazaspiro[4.5]decan-1-one]
0.007	C[C@@H]1CC2(CCN(C[C@@H](O)c3ccc4c(ccc5nnnn54)c3)CC2)C(=O)N1C1=CC(=O)OC1 [Example 18, (R)-8-((S)-2-hydroxy-2-(tetrazolo[1,5-a]quinolin-7-yl)ethyl)-3-methyl-2-(5-oxo-2,5-dihydrofuran-3-yl)-2,8-diazaspiro[4.5]decan-1-one]
0.239	CO[C@@H](CN1CCC2(CC1)CCN(C1=C(C)C(=O)OC1)C2=O)c1ccc2c(c1)Cn1nnnc1-2 [Example 31, (R)-8-(2-methoxy-2-(5H-tetrazolo[5,1-a]isoindol-7-yl)ethyl)-2-(4-methyl-5-oxo-2,5-dihydrofuran-3-yl)-2,8-diazaspiro[4.5]decan-1-one]
0.019	CC1=C(N2CCC3(CCN(C[C@@H](O)c4ccc5c(c4)Cn4nnnc4-5)CC3)C2=O)COC1=O [Example 9, (S)-8-(2-hydroxy-2-(5H-tetrazolo[5,1-a]isoindol-7-yl)ethyl)-2-(4-methyl-5-oxo-2,5-dihydrofuran-3-yl)-2,8-diazaspiro[4.5]decan-1-one]
